Experimental data from patent US20250122567A1, “Methods of Identifying and Treating Subjects having Inflammatory Subphenotypes of Asthma” (National Jewish Health, priority 2015, published 2025).

Legend:
HRV-16 = HRV-16 infection of ALI differentiated airway epithelial cells treated with IL-13; type: cell-based, human rhinovirus-16; conditions: IL-13 10 ng/ml for final 10 days of differentiation, BECs and NECs, vs vehicle
DPP4 = test: IL-13 treatment of ALI differentiated bronchial epithelial cells, DPP4 expression; type: cell-based; conditions: IL-13 10 ng/ml, 24 hours
Method: FIGS. 12A and 12B show pairs of Air-liquid interface (ALI) differentiated bronchial epithelial cells (BEC) from 5 donors that were treated for 24 hours with IL-13 cytokine (10 ng/ml) and vehicle control. (FIG. 12A) RNA was extracted from all control and IL-13 treated ALI membranes. RNA was used in 5′ nuclease qPCR assays to determine DPP4 and housekeeping gene expression. Normalized DPP4 expression for the control and IL-13 treated cultures of a subject are connected by a line. Well-differential nasal airway epithelial cultures were generated and tested for a single donor denoted by red points. (FIG. 12B) Western blot of cell lysates for DPP4 in control and IL-13 treated BECs from all five donors.

Which “HRV-16 infection (mRNA) of ALI differentiated airway epithelial cells” value (HRV-16) does the source give for “IL-13: Th2 cytokine used to treat airway epithelial cell cultures (10 ng/ml)” here?
The value was “decreases HRV-16 infection”.

And the “DPP4 gene expression in airway epithelial cells” value (DPP4; ALI differentiated BEC from 5 donors, qPCR, vs vehicle control)?
The value was “strongly induced”.

What about the “DPP4 protein expression in airway epithelial cells” value (DPP4; BEC cell lysates from five donors, Western blot, vs control) of the same substance?
The value was “strongly induced”.
